Laboratory results published in ChEMBL document CHEMBL5329211, “Selective isoxazolopyrimidine PAT1 (SLC26A6) inhibitors for therapy of intestinal disorders” (RSC Med Chem, 2023).
The source made the active and inactive calls. The calls are words filed in the database; no cut-off is given here.

Tests used:
[1] = target: T1, Chloride anion exchanger (Homo sapiens) (UniProt P40879); experiment: Inhibition of SLC26A3 (unknown origin) expressed in rat FRT cells coexpressing YFP halide-sensing protein assessed as iodide-chloride exchange at 25 uM incubated for 2 sec by fluorescence quenching analysis; assay type: cell-based
T1 sequence (whole entry): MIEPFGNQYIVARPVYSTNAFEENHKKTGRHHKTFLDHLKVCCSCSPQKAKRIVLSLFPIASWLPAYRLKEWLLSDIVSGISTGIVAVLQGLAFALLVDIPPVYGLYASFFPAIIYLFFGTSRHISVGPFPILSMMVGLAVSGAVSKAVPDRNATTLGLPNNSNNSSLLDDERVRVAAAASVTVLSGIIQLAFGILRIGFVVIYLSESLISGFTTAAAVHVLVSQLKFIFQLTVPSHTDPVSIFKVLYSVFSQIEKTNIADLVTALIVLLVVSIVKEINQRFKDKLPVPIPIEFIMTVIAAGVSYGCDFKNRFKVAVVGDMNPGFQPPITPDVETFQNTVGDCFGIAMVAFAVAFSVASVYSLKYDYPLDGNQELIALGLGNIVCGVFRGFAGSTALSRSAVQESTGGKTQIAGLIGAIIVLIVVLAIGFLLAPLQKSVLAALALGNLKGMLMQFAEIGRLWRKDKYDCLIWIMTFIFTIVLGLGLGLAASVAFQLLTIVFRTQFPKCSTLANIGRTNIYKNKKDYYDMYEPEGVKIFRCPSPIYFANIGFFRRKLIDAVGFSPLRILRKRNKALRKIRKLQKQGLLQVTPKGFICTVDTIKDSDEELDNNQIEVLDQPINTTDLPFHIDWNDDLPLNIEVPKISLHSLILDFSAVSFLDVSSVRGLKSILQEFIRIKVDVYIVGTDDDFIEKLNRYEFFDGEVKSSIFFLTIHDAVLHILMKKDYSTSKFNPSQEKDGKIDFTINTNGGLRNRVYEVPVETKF

[2] = target: T2, Anoctamin-1 (Homo sapiens) (UniProt Q5XXA6); experiment: Inhibition of TMEM16A (unknown origin)
T2 sequence (whole entry): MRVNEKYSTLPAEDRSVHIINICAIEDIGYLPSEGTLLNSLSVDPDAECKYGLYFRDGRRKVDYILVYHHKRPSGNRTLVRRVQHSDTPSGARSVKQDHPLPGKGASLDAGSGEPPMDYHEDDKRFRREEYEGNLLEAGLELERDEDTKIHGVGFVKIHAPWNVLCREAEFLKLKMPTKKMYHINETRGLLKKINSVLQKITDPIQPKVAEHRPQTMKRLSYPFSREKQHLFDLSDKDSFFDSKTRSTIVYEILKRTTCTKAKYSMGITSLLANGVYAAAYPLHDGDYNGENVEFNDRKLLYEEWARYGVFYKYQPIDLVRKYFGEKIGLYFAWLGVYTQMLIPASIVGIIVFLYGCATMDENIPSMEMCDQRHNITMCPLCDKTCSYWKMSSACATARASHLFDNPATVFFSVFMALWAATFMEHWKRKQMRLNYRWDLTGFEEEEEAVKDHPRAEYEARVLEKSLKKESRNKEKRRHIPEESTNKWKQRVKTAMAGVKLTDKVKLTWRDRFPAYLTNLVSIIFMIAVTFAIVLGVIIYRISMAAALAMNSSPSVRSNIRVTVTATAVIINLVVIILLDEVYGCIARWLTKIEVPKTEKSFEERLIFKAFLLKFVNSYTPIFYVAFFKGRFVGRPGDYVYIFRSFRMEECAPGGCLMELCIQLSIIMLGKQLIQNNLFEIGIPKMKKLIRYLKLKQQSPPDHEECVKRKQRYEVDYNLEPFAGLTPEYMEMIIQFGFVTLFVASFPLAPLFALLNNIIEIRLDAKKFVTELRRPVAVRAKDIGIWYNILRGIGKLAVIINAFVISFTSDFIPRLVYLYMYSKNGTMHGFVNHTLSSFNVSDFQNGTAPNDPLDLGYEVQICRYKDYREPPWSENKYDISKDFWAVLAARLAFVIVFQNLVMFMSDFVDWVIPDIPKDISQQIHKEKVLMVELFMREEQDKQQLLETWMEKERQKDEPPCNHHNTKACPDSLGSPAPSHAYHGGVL

inhibition [1]: inactive
inhibition [2]: inactive
Structure (SMILES): CCOC(=O)c1nc(N(C)Cc2ccccc2)c2c(C)noc2n1
